Reference: paper PMC3281842, “Crystal Structure of TDRD3 and Methyl-Arginine Binding Characterization of TDRD3, SMN and SPF30” (PLoS ONE, 2012)
Where two headings read alike, the source gives them in different places. Square brackets hold non-standard residues; d marks the D form. Peptide text beside a SMILES is read from it. Arg(Me2a) = CN(C)C(=N)NCCC[C@H](N)C(=O)O; Arg(Me2s) = CN=C(NC)NCCC[C@H](N)C(=O)O; Arg(Me) = CNC(=N)NCCC[C@H](N)C(=O)O

Columns and labels:
TDRD3 (aa 520–633) [1] = target: T1, TDRD3 (aa 520–633) (Homo sapiens, UniProt Q9H7E2); test: ITC (Isothermal Titration Calorimetry) binding, TDRD3; details: 20 mM Tris pH 8.0, 200 mM NaCl, 25°C, one-site binding model, NB = no detectable binding
T1 construct: TDRD3 (aa 520–633); His tag (pET28-MHL) (N); made in house; host or cells: Escherichia coli BL21 (DE3)
Experimental: Figure 2 Preferential binding of TDRD3 to asymmetrical dimethylated H3R17 peptide over symmetrical dimethylated H3R17 peptide. The ITC measurements were done in 20 mM Tris pH 8.0 and 200 mM NaCl using the same TDRD3 construct as used in Table 1. The measurements were taken at 25°C. Binding isotherms were plotted and analyzed using Origin Software (MicroCal Inc.). The ITC measurements were fit to a one-site binding model. (A) Histone H3R17me2a peptide (TGGKAPRme2aKQLATKA). (B) Histone H3R17me2s peptide (TGGKAPRme2sKQLATKA). (C) PIWIL1_R4me2a peptide (TGRme2aARARA). TEXT PRINTED IN THE PICTURE: (A) H3R17me2a: Kd>1000μM | (B) H3R17me2s: No binding | (C) PIWIL1_R4me2a: Kd>500μM
The protocol for ITC (Isothermal Titration Calorimetry) was carried out as described before. The ITC buffer used in this study is 20 mM Tris pH 8.0 and 200 mM NaCl. The measurements were taken at 25°C. Binding isotherms were plotted and analyzed using Origin Software (MicroCal Inc.). The ITC measurements were fit to a one-site binding model.

SMN (aa 80–170) = target: T2, SMN (aa 80–170) (Homo sapiens, UniProt Q16637); test: Fluorescence polarization binding assay, SMN Tudor domain; details: for Kd: fluorescence polarization, fluorescein-labeled peptide, 20 mM Tris pH 7.5, 50 mM NaCl, 1 mM DTT, 0.01% Triton X-100, 25°C, average of three independent measurements, NB = no detectable binding
T2 construct: SMN (aa 80–170); His tag (pET28-MHL) (N); made in house; host or cells: Escherichia coli BL21 (DE3)
Experimental: (§1) Figure 1 Fluorescence polarization binding curves of TDRD3 (aa 520–633), SMN (aa 80–170), and SPF30 (aa 65–150) to the PIWIL1-R4 peptides. The buffer used in the fluorescence polarization assay is 20 mM Tris pH 7.5, 50 mM NaCl, 1 mM DTT and 0.01% Triton X-100. The data are measured at 25°C and corrected for background by subtracting the free-labeled peptide background. The Kd values are the average of three independent measurements.
(§2) All the regular and fluorescent peptides used this study were synthesized by Tufts University Core Services (Boston, USA). The fluorescence polarization assay was carried out as described before. The buffer used in the fluorescence polarization assay is 20 mM Tris pH 7.5, 50 mM NaCl, 1 mM DTT and 0.01% Triton X-100. An excitation wavelength of 485 nm and an emission wavelength of 528 nm are used. The data are measured at 25°C and corrected for background by subtracting the free-labeled peptide background. The data were collected by the Synergy 2 (BioTec, USA) fluorescence polarization program and were fit to one-site binding model using Origin 7 (MicroCal, Inc.). The Kd values are the average of three independent measurements.

SPF30 (aa 65–150) = target: T3, SPF30 (aa 65–150) (Homo sapiens, UniProt O75940); test: Fluorescence polarization binding assay, SPF30 Tudor domain; details: fluorescein-labeled peptide, 20 mM Tris pH 7.5, 50 mM NaCl, 1 mM DTT, 0.01% Triton X-100, 25°C, average of three independent measurements, NB = no detectable binding
T3 construct: SPF30 (aa 65–150); His tag (pET28-MHL) (N); made in house; host or cells: Escherichia coli BL21 (DE3)
T3 sequence (O75940 65-150): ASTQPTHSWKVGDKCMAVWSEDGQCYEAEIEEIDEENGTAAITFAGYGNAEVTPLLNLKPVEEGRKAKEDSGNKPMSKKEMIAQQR
Experimental: as §1, §2

SND1 (aa 650–910) [2] = target: T4, SND1 (aa 650–910) (Homo sapiens, UniProt Q7KZF4); test: Fluorescence polarization binding assay, SND1 extended Tudor domain; details: values without asterisk in Table 1, NB = no detectable binding
T4 construct: SND1 (aa 650–910)
T4 sequence (Q7KZF4 650-910): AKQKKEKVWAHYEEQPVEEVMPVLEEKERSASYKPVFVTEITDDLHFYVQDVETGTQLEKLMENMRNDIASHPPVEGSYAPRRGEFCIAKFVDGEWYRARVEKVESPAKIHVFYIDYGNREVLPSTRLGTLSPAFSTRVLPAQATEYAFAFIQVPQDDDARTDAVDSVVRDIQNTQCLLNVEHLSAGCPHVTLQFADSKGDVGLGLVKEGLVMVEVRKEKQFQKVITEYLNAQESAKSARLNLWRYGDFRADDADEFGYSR
Experimental: as §2

TDRD3 (aa 520–633) [3] = target: T1, TDRD3 (aa 520–633); test: Fluorescence polarization binding assay, TDRD3 Tudor domain; details: fluorescein-labeled peptide, 20 mM Tris pH 7.5, 50 mM NaCl, 1 mM DTT, 0.01% Triton X-100, 25°C, average of three independent measurements, NB = no detectable binding
Experimental: TDRD3 contains a Tudor domain at its C-terminus. […] In order to characterize its binding specificity and affinity quantitatively, we performed a series of fluorescence polarization (FP) binding assays using our fluorescein-labeled peptide library, which includes GAR motif-containing SmD3 and PIWIL1 peptides, PGM motif-containing SmB peptides, and histone H3R2 peptides (Table 1 and Fig. 1). A low salt concentration (50 mM NaCl) is used in the FP binding assay due to the weak binding affinities of these proteins to their ligands. At this salt concentration, the binding affinities are increased about four times compared to the data measured at 200 mM NaCl (Fig. S1), which will save the reagents and make the Kd measurement more reliable. […] Therefore, TDRD3 has a different binding selectivity than SND1, which we have previously established that the extended Tudor domain of SND1 preferentially binds symmetrically dimethylated arginine PIWIL1 peptides. Similar to SND1, the binding selectivity of TDRD3 among these three different arginine methylation marks is about 2 to 4-fold (Table 1).
as §1, §2

SND1 (aa 650–910) [4] = target: T4, SND1 (aa 650–910); details: values marked * in Table 1; NB = no detectable binding; ref Liu K et al, PNAS, 2010 [20]; cited from earlier work
From the text: Table 1 Binding affinities of TDRD3 (aa 520–633), SMN (aa 80–170), and SPF30 (aa 65–150) to different methyl-arginine peptides in comparison with SND1 (aa 650–910). | column: Kd (µM) / SND1 (aa 650–910)

T2 sequence (Q16637 80-170): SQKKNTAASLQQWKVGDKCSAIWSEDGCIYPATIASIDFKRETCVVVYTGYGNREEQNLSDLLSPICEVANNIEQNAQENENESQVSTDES
T1 sequence (Q9H7E2 520-633): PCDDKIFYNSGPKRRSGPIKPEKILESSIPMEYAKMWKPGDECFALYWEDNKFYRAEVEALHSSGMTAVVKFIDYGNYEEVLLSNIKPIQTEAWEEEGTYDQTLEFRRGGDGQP

Compound	Kd (SMN (aa 80–170)) [µM]	Kd (SPF30 (aa 65–150)) [µM]	Kd (TDRD3 (aa 520–633) [3]) [µM]	further results
CC(C)C[C@H](NC(=O)[C@H](CCC(N)=O)NC(=O)[C@H](CCCCN)NC(=O)[C@H](CCCNC(=N)N(C)C)NC(=O)[C@@H]1CCCN1C(=O)[C@H](C)NC(=O)[C@H](CCCCN)NC(=O)CNC(=O)CNC(=O)[C@@H](N)[C@@H](C)O)C(=O)N[C@@H](C)C(=O)N[C@H](C(=O)N[C@@H](CCCCN)C(=O)N[C@@H](C)C(=O)O)[C@@H](C)O [H3R17me2a]				Kd (TDRD3 (aa 520–633) [1]): > 1000 µM
CN=C(NC)NCCC[C@H](NC(=O)[C@@H]1CCCN1C(=O)[C@H](C)NC(=O)[C@H](CCCCN)NC(=O)CNC(=O)CNC(=O)[C@@H](N)[C@@H](C)O)C(=O)N[C@@H](CCCCN)C(=O)N[C@@H](CCC(N)=O)C(=O)N[C@@H](CC(C)C)C(=O)N[C@@H](C)C(=O)N[C@H](C(=O)N[C@@H](CCCCN)C(=O)N[C@@H](C)C(=O)O)[C@@H](C)O [H3R17me2s]				Kd (TDRD3 (aa 520–633) [1]): > 500 µM; Kd TDRD3 (aa 520–633) by ITC (TDRD3 (aa 520–633) [1]): No binding
CN=C(NC)NCCC[C@H](NC(=O)CNC(=O)[C@@H]1CCCN1C(=O)[C@@H]1CCCN1C(=O)[C@@H](N)Cc1ccc(O)cc1)C(=O)NCC(=O)NCC(=O)N1CCC[C@H]1C(=O)N1CCC[C@H]1C(=O)N1CCC[C@H]1C(=O)O [PGM(SmB165SD)] (H-YPPG[Arg(Me2s)]GGPPP-OH; N-terminus and C-terminus assumed)	> 300	> 500		Kd (SND1 (aa 650–910) [2]): > 500 µM
CN=C(NC)NCCC[C@H](NC(=O)[C@H](CCSC)NC(=O)CNC(=O)[C@@H]1CCCN1C(=O)[C@@H]1CCCN1)C(=O)N1CCC[C@H]1C(=O)N1CCC[C@H]1C(=O)N1CCC[C@H]1C(=O)N1CCC[C@H]1C(=O)NCC(=O)O [PGM(SmB214SD)] (H-PPGM[Arg(Me2s)]PPPPG-OH; N-terminus and C-terminus assumed)	> 400	> 500		Kd (SND1 (aa 650–910) [2]): > 500 µM
CN=C(NC)NCCC[C@H](NC(=O)[C@H](CCSC)NC(=O)CNC(=O)[C@@H]1CCCN1C(=O)[C@@H]1CCCN1)C(=O)NCC(=O)N1CCC[C@H]1C(=O)N1CCC[C@H]1C(=O)N1CCC[C@H]1C(=O)O [PGM(SmB221SD)] (H-PPGM[Arg(Me2s)]GPPP-OH; N-terminus and C-terminus assumed)	> 500	> 500		Kd (SND1 (aa 650–910) [2]): > 500 µM
CNC(=N)NCCC[C@H](NC(=O)CNC(=O)[C@@H](N)[C@@H](C)O)C(=O)N[C@@H](C)C(=O)N[C@@H](CCCNC(=N)N)C(=O)N[C@@H](C)C(=O)N[C@@H](CCCNC(=N)N)C(=O)N[C@@H](C)C(=O)N[C@@H](CCCNC(=N)N)C(=O)NCC(=O)N[C@@H](CCCNC(=N)N)C(=O)N[C@@H](C)C(=O)N[C@@H](CCCNC(=N)N)C(=O)NCC(=O)N[C@@H](CCC(N)=O)C(=O)N[C@@H](CCC(=O)O)C(=O)O [PIWIL1-R4me1] (H-TG[Arg(Me)]ARARARGRARGQE-OH; N-terminus and C-terminus assumed)	> 150	> 500	> 500	binding affinity to SMN, times weaker than for PIWIL1_R4me2s (SMN (aa 80–170); ratio of FP Kd values relative to PIWIL1_R4me2s (Kd 34 µM)): over 4 times
C[C@H](NC(=O)[C@H](CCCNC(=N)N)NC(=O)CNC(=O)[C@H](CCCNC(=N)N)NC(=O)[C@H](C)NC(=O)[C@H](CCCNC(=N)N)NC(=O)[C@H](C)NC(=O)[C@H](CCCNC(=N)N)NC(=O)[C@H](C)NC(=O)[C@H](CCCNC(=N)N(C)C)NC(=O)CNC(=O)[C@@H](N)[C@@H](C)O)C(=O)N[C@@H](CCCNC(=N)N)C(=O)NCC(=O)N[C@@H](CCC(N)=O)C(=O)N[C@@H](CCC(=O)O)C(=O)O [PIWIL1-R4me2a] (H-TG[Arg(Me2a)]ARARARGRARGQE-OH)		> 400	> 150	
CN=C(NC)NCCC[C@H](NC(=O)CNC(=O)[C@@H](N)[C@@H](C)O)C(=O)N[C@@H](C)C(=O)N[C@@H](CCCNC(=N)N)C(=O)N[C@@H](C)C(=O)N[C@@H](CCCNC(=N)N)C(=O)N[C@@H](C)C(=O)N[C@@H](CCCNC(=N)N)C(=O)NCC(=O)N[C@@H](CCCNC(=N)N)C(=O)N[C@@H](C)C(=O)N[C@@H](CCCNC(=N)N)C(=O)NCC(=O)N[C@@H](CCC(N)=O)C(=O)N[C@@H](CCC(=O)O)C(=O)O [PIWIL1-R4me2s] (H-TG[Arg(Me2s)]ARARARGRARGQE-OH)		> 200	> 300	
C[C@H](NC(=O)[C@H](CCCNC(=N)N)NC(=O)[C@H](C)NC(=O)[C@H](CCCNC(=N)N)NC(=O)[C@H](C)NC(=O)[C@H](CCCNC(=N)N(C)C)NC(=O)CNC(=O)[C@@H](N)[C@@H](C)O)C(=O)O [PIWIL1_R4me2a peptide (TGRme2aARARA)] (H-TG[Arg(Me2a)]ARARA-OH; N-terminus and C-terminus assumed)				Kd (TDRD3 (aa 520–633) [1]): > 500 µM
CN=C(NC)NCCC[C@H](NC(=O)CNC(=O)[C@H](CCCNC(=N)N)NC(=O)CNC(=O)CN)C(=O)NCC(=O)N[C@@H](CCCNC(=N)N)C(=O)NCC(=O)O [SmD3RSDMA] (H-GGRG[Arg(Me2s)]GRG-OH)		> 500	> 400	
ARTK (me)1/2/3 QTARKST [Histone H3K4me1/2/3, histone H3 peptides mono-, di- or trimethylated at K4, reported in one line]	> 500	> 500		Kd (SND1 (aa 650–910) [4]): > 500 µM
ARTKQTARK(me)1/2/3STGGKA [Histone H3K9me1/2/3, histone H3 peptides mono-, di- or trimethylated at K9, reported in one line]	> 500	> 500		Kd (SND1 (aa 650–910) [4]): > 500 µM
